The values below are quoted from earlier work in patent publication US5998440A, “Azetidine, pyrrolidine and piperidine derivatives” (Merck Sharpe & Dohme Ltd., priority 1995, dated 1999).

The conditions of the series: humans, therapeutic doses.

As to `CNS(=O)(=O)Cc1ccc2[nH]cc(CCN(C)C)c2c1` [sumatriptan], the adverse cardiovascular events result is reported as “certain adverse cardiovascular events”.
